Laboratory results: article PMC9704104, “Towards safer anti-inflammatory therapy: synthesis of new thymol–pyrazole hybrids as dual COX-2/5-LOX inhibitors” (Journal of Enzyme Inhibition and Medicinal Chemistry, 2022)
Values joined by “and” are separate entries in the source; they are usually repeats but may differ in a detail not shown here. Identical values can stand only once. “Also recorded” adds a separate entry of the source.

Assays:
COX-1 = target: T1, COX-1 (Ovis aries, UniProt P05979); assay: In vitro COX-1 inhibitory assay (Cayman colorimetric COX (ovine) inhibitor screening assay kit); format: biochemical; settings: mean of three replicates ± SD
T1 construct: purchased Cayman chemicals 560131
T1 sequence (P05979 25-600): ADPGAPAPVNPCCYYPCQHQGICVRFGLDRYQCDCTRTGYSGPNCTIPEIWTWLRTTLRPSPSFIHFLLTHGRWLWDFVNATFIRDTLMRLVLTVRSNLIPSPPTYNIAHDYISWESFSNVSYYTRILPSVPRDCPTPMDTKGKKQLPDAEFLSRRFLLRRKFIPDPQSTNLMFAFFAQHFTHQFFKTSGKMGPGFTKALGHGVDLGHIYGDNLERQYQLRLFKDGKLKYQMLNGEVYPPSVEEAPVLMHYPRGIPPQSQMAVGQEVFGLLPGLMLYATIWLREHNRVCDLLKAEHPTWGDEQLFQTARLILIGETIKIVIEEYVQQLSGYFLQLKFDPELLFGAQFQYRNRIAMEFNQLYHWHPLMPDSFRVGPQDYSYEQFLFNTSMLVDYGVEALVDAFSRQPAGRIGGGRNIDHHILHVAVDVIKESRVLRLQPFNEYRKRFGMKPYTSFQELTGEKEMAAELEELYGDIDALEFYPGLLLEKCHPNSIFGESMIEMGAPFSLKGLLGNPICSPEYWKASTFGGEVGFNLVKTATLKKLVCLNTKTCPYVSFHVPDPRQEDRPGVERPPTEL
Description: (Page: S20, Supplementary file).
Anti-inflammatory activity
In vitro COX-1 and COX-2 inhibitory assay […]
supplied by Cayman chemicals, Ann Arbor, MI, USA according to reported method 1. The colorimetric COX inhibitor screening assay utilizes the peroxidase component of cyclooxygenase. The peroxidase activity was assayed calorimetrically by monitoring the appearance of oxidized N,N,N',N'-tetramethyl-1,4-phenylenediamine (TMPD) at 590nm. The appearance of reagent was carried out following the instructions […]
The half- maximal inhibitor concentrations (IC50µM) were determined and the selectivity index (SI) values were calculated as IC50 (COX-1)/IC50 (COX-2).
1) Background wells- 160 µL of assay buffer and 10 µL of heme were added to background wells.
2) The 100% Initial activity wells- 150 µL of assay buffer, 10 µL of heme and 10 µL of enzyme (COX-1 or COX-2) were added.
3) Inhibitor well- 150 µL of assay buffer, 10 µL of heme and 10 µL of enzyme were added.
4) 10 µL of inhibitor (3 concentrations) in DMSO was added to the inhibitor wells to yield a final […]
5) 10 µL of solvent (DMSO) was added to the 100% Initial activity wells and background wells.
7) 20 µL of colorimetric substrate solution (TMPD) was added to all wells.
8) 20 µL of arachidonic acid was added to all wells to yield a final concentration of 100 µM.
10) The absorbance was measured at 590 nm using a plate reader.
The calculations were carried out in the following manner:
1) The average absorbance of all samples was determined.
2) The absorbance of background wells was subtracted from absorbance of the 100% Initial activity […]
3) Percent inhibition = (100% Initial activity – Inhibitor wells/ 100% Initial activity)∗ 100 […]
Place the 96-well plate on a shaker for at least five minutes. […]

[1] = system: formalin-induced rat paw oedema; assay: Formalin-induced paw oedema test (acute inflammation model); format: in vivo; settings: for % inhibition of paw oedema compared with reference drugs (in words) / inhibition in vivo at 5 mg/kg: 4 h; for % inhibition of paw oedema compared with reference drugs (in words): comparison with celecoxib or diclofenac sodium; for inhibition in vivo at 5 mg/kg: Rattus norvegicus, po, read-out: % Inhibition of oedema volume; for % Relative potency (4h) celecoxib / % Relative potency (4h) celecoxib, Mean ± SD: relative to % inhibition of celecoxib at 4 h; for % Relative potency (4h) diclofenac, Mean ± SD / % Relative potency (4h) diclofenac: relative to % inhibition of diclofenac at 4 h; for % Relative potency (4h) diclofenac, Mean ± SD / % Relative potency (4h) celecoxib, Mean ± SD: group mean ± SD
Description: Animals Adult female albino rats weighing 150-250 g were used (Experimental Animal Centre in Alexandria University). All animals accessed to food and water ad libitum and were housed in 12 h dark/light cycle in a controlled condition at 23-250C. They were allowed to acclimatize for 1 week prior to experimentation. Procedures involving animals and their care were conducted in conformity with the Guide for the Care and Use of Laboratory Animals published by US National Institute of Health4 (NIH publication No. 83-23, revised) and following the ethical guidelines of Alexandria University on laboratory animals. In all tests, adequate considerations were adopted to reduce pain or discomfort of animals (Approved by AlexU-IACUC) 3. […]
Formalin-induced paw edema test (acute inflammation model):
A solution of freshly prepared formalin 5% was used as a phlogistic agent. A mark was made on the lateral malleolus of the rats’ paws delineating the injection sites. The initial volume of paw was measured by means of digital calibrated Vernier caliper .
After 45 minutes, 40 μl formalin were injected subcutaneously into the sub plantar tissue of the right hind paw of all groups under light ether anesthesia . An equal volume of saline was injected into the left hind paw and served as internal control for the degree of inflammation in the right hind paw. 5, 6 The volume of paw was measured in different treatment groups, 4 h following the formalin injection and the amount of increase in paw volume (edema volume) was calculated by subtracting the volumes before and 4 h after the injection of formalin. Edema was expressed as an increase in the volume of paw, and the percentage of edema inhibition (or percent protection against inflammation) for each rat and each group was calculated according to the following equation: […]
Where Vt is the mean volume of edema at specific time interval (4 h) and Vo is the mean volume of edema […]
Relative potency of the tested compounds was expressed as % inhibition of edema for the tested compounds

gastric mucosa = assay: In vivo gastric ulcerogenic activity (gross examination of gastric mucosa); settings: fasted rats, 60 mg/kg orally, six hours after treatment, 60 mg/kg
Description: Compounds were evaluated for acute gastric ulcerogenic effect in adult female Wistar rats. Gross examination was performed for any evidence of hyperaemia, haemorrhage, definite haemorrhagic erosion, or ulcer according to reported procedures[49]^,[51]
Compounds were evaluated for acute gastric ulcerogenic effect in adult female Wistar rats. Rats (150–250 g)
were divided into groups of six rats each and test compounds, references or DMSO as control were
administered orally at a dose of 60 mg/kg body weight (three times the previously used dose). Six hours after
the treatment they were sacrificed under deep ether anesthesia and their stomachs were removed and opened
through greater curvature, washed under running water and fixed in saline solution. Gross examination was
performed for any evidence of hyperemia, hemorrhage, definite hemorrhagic erosion or ulcer 6, 7 (Approved
The degree of ulcerogenicity was determined by viewing the gastric epithelial ulceration using a 5x
magnifying lens and rated by ulcer score.
Ulcer score was used to grade the incidence and severity of the lesions such as:
1) Shedding of epithelium—10
2) Petechial and frank hemorrhages—20
4) More than two ulcers—40

5-LOX = assay: In vitro 5-LOX inhibitory assay (Abnova 5-LOX inhibitor screening assay kit); format: biochemical
Description: The newly synthesised compounds were screened for their ability to inhibit 5-LOX enzymes. […] (Page: S21, Supplementary file). […]
In vitro LOX inhibitory assay
Inhibitor Screening Assay Kit detects and measures the hydroperoxides produced in the lipoxygenation reaction using a purified LOX. The detection reaction is equally sensitive to hydroperoxides at various positions within the fatty acid and will work with fatty acids of any carbon length. It is thus a general detection method for 5-LOX and can be used to screen libraries of compounds for those which inhibit 5 -LOX enzymes.
1) Blank Wells- add 100 µL of assay buffer to at least two wells.
2) Positive Control Wells- Lipoxygenase (15-LO standard) add 90 µL 15-LO and 10 µL of assay buffer […]
3) 100% Initial Activity Wells- add 90 µL 15-LO and 10 µL of solvent (DMSO) (the same solvent to dissolve the inhibitor) to two wells. The 100% initial activity wells should result in approximately 10 […]
4) Inhibitor Wells- add 90 µL of sample and I10 µL of inhibitor to two wells.
5) Initiate the reaction by adding 10 µL of substrate (either arachidonic acid or linoleic acid) to all the wells. Place the 96-well plate on a shaker for at least five minutes.
6) Add 100 µL of chromogen to each well to stop enzyme catalysis and develop the reaction. Cover with a plate cover and place the 96-well plate on a shaker for at least five minutes.
7) Remove the cover and read the absorbance at 490-500 nm using a plate reader.
Inhibitors were dissolved in DMSO. The inhibitors were added to the assay in a final volume of 10 µL before initiating with substrate. Three concentrations were prepared (25, 50 and 100 µM) to determine the concentration produced 50% enzyme inhibition.
2) The absorbance of blank wells was subtracted from absorbance of the 100% Initial activity and the […]

[2] = individual rats 1-3, 5 mg/kg orally
[3] = individual rats 1-3, 5 mg/kg orally, 5 mg/kg

IC50 (COX-1) [µM] | IC50 (5-LOX) [µM] | SMILES | % inhibition of paw oedema compared with reference drugs (in words) ([1]; 5 mg/kg orally, 5 mg/kg) | inhibition in vivo at 5 mg/kg [1, 2] [%] | % Relative potency (4h) celecoxib ([1]; individual rats 1-3) | % Relative potency (4h) diclofenac, Mean ± SD [1] [%] | % Relative potency (4h) diclofenac ([1]; individual rats 1-3) | Volume of oedema (ml) 0 [1, 3] [mL] | Gross appearance of gastric mucosa (ulcerogenic potential) (gastric mucosa) | % Relative potency (4h) celecoxib, Mean ± SD [1] [%] | % inhibition of paw oedema compared with reference drugs (in words) ([1]; 5 mg/kg orally) | Volume of oedema (ml) 4h ([1]; 4 h after formalin, individual rats 1-3, 5 mg/kg orally, 5 mg/kg) [mL]
13.61 ± 0.096 | 1.58 ± 0.026 | Cc1ccc(C(C)C)c(O)c1C=NNC(=O)c1cc(-c2ccc(Br)cc2)n(-c2ccc(S(N)(=O)=O)cc2)n1 [Compound 8b, 4-(5-(4-Bromophenyl)-3-(2-(2-hydroxy-3-isopropyl-6-methylbenzylidene)hydrazine-1-carbonyl)-1H-pyrazol-1-yl)benzene sulphonamide] | nearly equal activity to celecoxib; also recorded: slightly less % inhibition than that of Diclofenac sodium | 40.1 | 114.10% and 86.90% and 93.30% | 68.50 ± 14.20 | 84.80% and 61.90% and 58.80% | 5.02 | No gross ulceration |  |  | 
11.8 ± 0.15 | 1.84 ± 0.06 | Cc1ccc(C(C)C)c(O)c1C=NNC(=O)c1cc(-c2ccc(Br)cc2)n[nH]1 [Compound 4b, 3-(4-Bromophenyl)-N'-(2-hydroxy-3-isopropyl-6-methylbenzylidene)-1H-pyrazole-5-carbohydrazide] |  | 55.9 | 159.0% and 136.90% and 150.70% | 103.5 ± 12.68 | 118.10% and 97.50% and 95.0% | 5.15 | No gross ulceration | 148.9 ± 11.16 |  | 
11.2 ± 0.15 | 1.96 ± 0.036 | Cc1ccc(C(C)C)c(O)c1C=NNC(=O)c1cc(-c2ccccc2)n(-c2ccc(S(N)(=O)=O)cc2)n1 [Compound 8a, 4-(3-(2–(2-Hydroxy-3-isopropyl-6-methylbenzylidene)hydrazine-1-carbonyl)-5-phenyl-1H-pyrazol-1-yl)benzenesulfonamide] |  | 40.1 | 114.10% and 92.90% and 113.30% | 74.10 ± 9.64 | 84.80% and 66.10% and 71.40% | 5.02 | variable degrees of hyperaemia; also recorded: Hyperemia without gross ulceration | 106.8 ± 12.02 | slightly less % inhibition than that of Diclofenac sodium | 6.35
